Experimental data: ChEMBL document CHEMBL5038622, “p-Terphenyls as Anti-HSV-1/2 Agents from a Deep-Sea-Derived Penicillium sp” (J Nat Prod, 2021)
Activity calls are given as the source filed them. The rule behind the calls is not given here.

Assays:
[1] = Cytotoxicity against African green monkey Vero cells assessed as reduction in cell viability incubated for 3 days by MTT assay; format: toxicity, cell-based; conditions: chlorocebus sabaeus, time 3 day
[2] = test system: Human alphaherpesvirus 2; assay: Antiviral activity against HSV-2 infected in African green monkey Vero cells assessed as inhibition of viral replication incubated for 3 days by MTT assay; format: functional, organism-based; conditions: Human alphaherpesvirus 2, Vero, 72 h
[3] = test system: HSV-1; assay: Selectivity index, ratio of CC50 for african green monkey Vero cells to EC50 for HSV-1 infected in African green monkey Vero cells; format: toxicity; conditions: HSV-1 infected Vero cells
[4] = test system: Human alphaherpesvirus 1; assay: Antiviral activity against HSV-1 infected in African green monkey Vero cells assessed as inhibition of viral replication incubated for 3 days by MTT assay; format: functional, organism-based; conditions: Human alphaherpesvirus 1, Vero, 72 h
[5] = test system: HSV-2; assay: Selectivity index, ratio of CC50 for african green monkey Vero cells to EC50 for HSV-2 infected in African green monkey Vero cells; format: toxicity; conditions: HSV-2 infected Vero cells
[6] = test system: Human alphaherpesvirus 1; assay: Antiviral activity against HSV-1 infected in African green monkey Vero cells assessed as reduction in plague formation at 10 uM measured after 48 hrs by crystal violet staining based plaque formation assay; format: functional, organism-based
[7] = test system: Human alphaherpesvirus 1; assay: Antiviral activity against HSV-1 infected in African green monkey Vero cells assessed as reduction in virus-induced cytopathic effect measured after 48 hrs by MTT assay; format: functional, organism-based; conditions: dose 0.63-10 µM
[8] = test system: Human alphaherpesvirus 2; assay: Antiviral activity against HSV-2 infected in African green monkey Vero cells assessed as reduction in plague formation measured after 48 hrs by crystal violet staining based plaque formation assay; format: functional, organism-based; conditions: dose 0.63-10 µM
[9] = biological target: Acetylcholinesterase (Homo sapiens, UniProt P22303); assay: Inhibition of AChE (unknown origin)
[10] = test system: Human alphaherpesvirus 2; assay: Antiviral activity against HSV-2 infected in African green monkey Vero cells assessed as reduction in virus induced gD protein expression at 1.3 uM by western blot analysis; format: functional, organism-based
[11] = test system: Human alphaherpesvirus 1; assay: Antiviral activity against HSV-1 infected in African green monkey Vero cells assessed as reduction in virus induced VP16 gene expression measured after 48 hrs by qRT-PCR analysis; format: functional, organism-based; conditions: dose 0.63-10 µM
[12] = test system: Human alphaherpesvirus 2; assay: Antiviral activity against HSV-2 infected in African green monkey Vero cells assessed as reduction in plague formation at 5 uM measured after 48 hrs by crystal violet staining based plaque formation assay; format: functional, organism-based
[13] = test system: Human alphaherpesvirus 2; assay: Antiviral activity against HSV-2 infected in African green monkey Vero cells assessed as reduction in virus-induced cytopathic effect measured after 48 hrs by MTT assay; format: functional, organism-based; conditions: dose 0.63-10 µM
[14] = biological target: T1, Pancreatic triacylglycerol lipase (Homo sapiens) (UniProt P16233); assay: Inhibition of pancreatic lipase (unknown origin) at 100 uM
T1 sequence (whole entry): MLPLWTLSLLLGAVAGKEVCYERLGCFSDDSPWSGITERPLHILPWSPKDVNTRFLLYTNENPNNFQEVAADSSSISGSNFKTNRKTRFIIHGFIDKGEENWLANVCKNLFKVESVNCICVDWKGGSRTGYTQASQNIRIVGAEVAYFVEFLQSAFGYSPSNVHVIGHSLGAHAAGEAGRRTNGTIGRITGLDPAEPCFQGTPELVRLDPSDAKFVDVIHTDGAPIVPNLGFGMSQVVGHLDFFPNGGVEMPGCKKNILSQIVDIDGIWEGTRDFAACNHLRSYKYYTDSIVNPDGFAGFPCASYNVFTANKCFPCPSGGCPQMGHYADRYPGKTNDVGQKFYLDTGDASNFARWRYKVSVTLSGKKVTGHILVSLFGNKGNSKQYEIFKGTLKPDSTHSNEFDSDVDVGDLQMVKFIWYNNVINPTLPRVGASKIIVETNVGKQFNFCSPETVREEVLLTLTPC

[15] = test system: Human alphaherpesvirus 1; assay: Antiviral activity against HSV-1 infected in African green monkey Vero cells assessed as reduction in virus induced gD protein expression at 2.5 uM by western blot analysis; format: functional, organism-based
[16] = test system: Human alphaherpesvirus 2; assay: Antiviral activity against HSV-2 infected in African green monkey Vero cells assessed as reduction in gD protein expression under co-treatment condition by western blot analysis; format: functional, organism-based
[17] = test system: Dengue virus; assay: Antiviral activity against Dengue virus at 20 uM; format: functional, organism-based
[18] = test system: Human alphaherpesvirus 1; assay: Antiviral activity against HSV-1 infected in African green monkey Vero cells assessed as inhibition of syncytium formation at 0.63 to 10 uM coinfected for 1 hr and measured after 24 hrs by H&E staining based optical microscopic analysis; format: functional, organism-based; conditions: dose 0.63-10 µM, time 25.0 hrs
[19] = test system: Zika virus; assay: Antiviral activity against Zika virus at 20 uM; format: functional, organism-based
[20] = test system: Human alphaherpesvirus 2; assay: Antiviral activity against HSV-2 infected in African green monkey Vero cells assessed as reduction in virus induced VP16 gene expression measured after 48 hrs by qRT-PCR analysis; format: functional, organism-based; conditions: dose 0.63-10 µM
[21] = test system: Human alphaherpesvirus 1; assay: Antiviral activity against HSV-1 infected in African green monkey Vero cells assessed as reduction in virus induced glycoprotein D gene expression measured after 48 hrs by qRT-PCR analysis; format: functional, organism-based; conditions: dose 0.63-10 µM
[22] = test system: Human alphaherpesvirus 2; assay: Antiviral activity against HSV-2 infected in African green monkey Vero cells assessed as reduction in virus induced glycoprotein D gene expression measured after 48 hrs by qRT-PCR analysis; format: functional, organism-based; conditions: dose 0.63-10 µM
[23] = test system: Human alphaherpesvirus 2; assay: Antiviral activity against HSV-2 infected in African green monkey Vero cells assessed as inhibition of syncytium formation at 0.63 to 10 uM coinfected for 1 hr and measured after 24 hrs by H&E staining based optical microscopic analysis; format: functional, organism-based; conditions: dose 0.63-10 µM, time 25.0 hrs
[24] = test system: Human alphaherpesvirus 1; assay: Antiviral activity against HSV-1 infected in African green monkey Vero cells assessed as reduction in plague formation measured after 48 hrs by crystal violet staining based plaque formation assay; format: functional, organism-based; conditions: dose 0.63-10 µM

Sequence of Acetylcholinesterase (P22303 whole entry): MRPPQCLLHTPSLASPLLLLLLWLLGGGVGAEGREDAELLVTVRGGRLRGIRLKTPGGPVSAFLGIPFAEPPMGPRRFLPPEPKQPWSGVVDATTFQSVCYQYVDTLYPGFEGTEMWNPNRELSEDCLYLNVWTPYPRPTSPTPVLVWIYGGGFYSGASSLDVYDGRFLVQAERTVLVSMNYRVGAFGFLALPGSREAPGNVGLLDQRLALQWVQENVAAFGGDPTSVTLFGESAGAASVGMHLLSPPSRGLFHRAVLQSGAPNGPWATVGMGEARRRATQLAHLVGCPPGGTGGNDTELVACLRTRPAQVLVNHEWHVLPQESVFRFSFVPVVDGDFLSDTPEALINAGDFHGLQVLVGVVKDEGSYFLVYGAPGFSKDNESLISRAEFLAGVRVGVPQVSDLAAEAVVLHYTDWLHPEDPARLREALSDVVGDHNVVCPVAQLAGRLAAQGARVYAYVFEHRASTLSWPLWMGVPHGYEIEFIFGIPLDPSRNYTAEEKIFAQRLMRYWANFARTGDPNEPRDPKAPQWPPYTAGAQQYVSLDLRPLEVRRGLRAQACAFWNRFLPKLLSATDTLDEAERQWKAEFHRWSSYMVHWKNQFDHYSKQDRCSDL

Structure (SMILES)	CC50 at 72 h [1] [µM]	EC50 [2] [µM]	selectivity ratio [3]	EC50 [4] [µM]	selectivity ratio [5]	other results
COc1c(-c2ccc(O)c(O)c2)cc(O)c2c1oc1cc(O)c(O)cc12 [6'-DESMETHYLCANDIDUSIN B]	> 100	2.1	> 24.4	4.1	> 48.5	
COc1c(-c2ccc(O)cc2)cc2oc3cc(O)c(O)cc3c2c1O	> 100	1.4	> 45.7	2.2	> 73.5	Activity [6]: Active; Activity [7]: Dose-Dependent Effect; Activity [8]: Active; IC50 [9]: 16 µM; Activity [10]: Active; Activity [11]: Dose-Dependent Effect; Activity [12]: Active; Activity [13]: Dose-Dependent Effect; inhibition [14]: inactive; Activity [15]: Active; Activity [16]: Active; Activity [17]: inactive; Activity [18]: Active; Activity [19]: inactive; Activity [20]: Dose-Dependent Effect; Activity [21]: Dose-Dependent Effect; Activity [22]: Dose-Dependent Effect; Activity [23]: Active; Activity [24]: Active
COc1c(-c2ccc(O)c(O)c2)cc2oc3cc(O)c(O)cc3c2c1O	> 100	2.4	> 23	4.3	> 41.5	
COc1c(-c2ccc(O)c(O)c2)cc(O)c(-c2ccc(O)c(O)c2)c1O	> 100	4.2	> 26.5	3.8	> 23.8	
COc1c(-c2ccc(O)cc2)cc(O)c(-c2ccc(O)c(O)c2)c1O	> 100	2.3	> 54.4	1.8	> 43.7	
Nc1nc2c(ncn2COCCO)c(=O)[nH]1 [ACYCLOVIR]	> 100	4.6	> 27.9	3.6	> 21.9	
COc1c(-c2ccc(O)cc2)cc(O)c2c1oc1cc(O)c(O)cc12	> 100	6.5	> 24.7	4.1	> 15.4	
O=c1cc(-c2ccc(O)c(O)c2)c(-c2ccc(O)c(O)c2)co1	> 100	8.5	> 10.8	9.3	> 11.7	
O=C1C(c2ccc(O)cc2)=CC(=O)c2c1oc1cc(O)c(O)cc21		> 20		> 20		
COC(=O)c1cc(O)cc(OC)c1C(=O)c1c(O)cc(C)cc1O [SULOCHRIN]		> 20		> 20		
